These results are taken from ChEMBL document CHEMBL4270488, “Antibacterial Compounds from Marine Bacteria, 2010-2015” (J Nat Prod, 2017).

Structures are written as SMILES. Values after ≈ are worked out from the molar mass of the structure shown. Where a SMILES comes first, the peptide text is derived from it. [ ]: non-standard residue; d: D form. The star is where a group is joined. Tridecanoyl(3R-OH,11-Me) = CCC(C)CCCCCCC[C@@H](O)CC(=O)*; X2 = CCC(C)CC(C)CCCCC[C@@H](O)CC(=O)* A value given as a limit tells only on which side of the number the result lay.

One may read the MIC as the smallest concentration in the dilution series that meets the test's criterion for growth inhibition.

In test [1] the test system is Staphylococcus aureus. In words: Antibacterial activity against methicillin-resistant Staphylococcus aureus. It is filed as functional.
The subject of test [2] is Staphylococcus aureus. In words: Antibacterial activity against Staphylococcus aureus by broth dilution assay. Format: functional.
The test system of test [3] is Bacillus subtilis. The test can be described thus: Antibacterial activity against Bacillus subtilis by broth dilution assay. It is filed as functional. In general terms: In broth dilution the organism is exposed to a series of concentrations in liquid medium.
The test system of a further test is Pseudomonas aeruginosa. The test can be described thus: Antibacterial activity against Pseudomonas aeruginosa by broth dilution assay. Format: functional.
The test system of another test is Salmonella typhi. In words: Antibacterial activity against Salmonella typhi by broth dilution assay. Format: functional, Salmonella enterica subsp. enterica serovar Typhi. Particulars: Salmonella enterica.
The test system of test [4] is Escherichia coli. The test can be described thus: Antibacterial activity against Escherichia coli by broth dilution assay. It is filed as functional.
Test [5] deals with Bacillus subtilis. The test can be described thus: Antibacterial activity against Bacillus subtilis by serial dilution assay. It is filed as functional.
The subject of the next test is Micrococcus luteus. The test can be described thus: Antibacterial activity against Micrococcus luteus by serial dilution assay. Format: functional.
In test [6] the test system is Escherichia coli. In words: Antibacterial activity against Escherichia coli by serial dilution assay. It is filed as functional.
Another test concerns Proteus vulgaris. The test can be described thus: Antibacterial activity against Proteus vulgaris by serial dilution assay. It is filed as functional.
In test [7] the test system is Staphylococcus aureus. The test can be described thus: Antibacterial activity against Staphylococcus aureus ATCC 29213. Format: functional.
Test [8] deals with Bacillus subtilis. In words: Antibacterial activity against Bacillus subtilis SCSIO BS01. It is filed as functional.
A further test deals with Bacillus thuringiensis. In words: Antibacterial activity against Bacillus thuringiensis SCSIO BT01. Format: functional.

`CC(C)=CCc1cc(C(=O)Nc2c(O)c3ccc(O[C@@H]4OC(C)(C)[C@H](O)[C@@H](OC(N)=O)[C@H]4O)c(C)c3oc2=O)ccc1O` came in with an MIC in the test on Staphylococcus aureus [1] of 8 to 16 µg/mL (≈ 13.4 to 26.7 µM).

`CCC(C)CCCCCCC[C@@H](O)CC(=O)N[C@@H](CCC(=O)OC)C(=O)N[C@@H](CC(C)C)C(=O)N[C@@H](CC(C)C)C(=O)N[C@@H](CC(C)C)C(=O)O` (stereo partly drawn) ({Tridecanoyl(3R-OH,11-Me)}-E(OMe)LLL-OH): the MIC was found to be 0.03 µg/mL (≈ 0.0413 µM) against Staphylococcus aureus [2], 0.01 µg/mL (≈ 0.0138 µM) against Bacillus subtilis [3], 0.03 µg/mL (≈ 0.0413 µM) against Pseudomonas aeruginosa and 0.01 µg/mL (≈ 0.0138 µM) against Salmonella typhi.

On to `CCC(C)CC(C)CCCCC[C@@H](O)CC(=O)N[C@@H](CCC(=O)O)C(=O)N[C@@H](CC(C)C)C(=O)N[C@@H](CC(C)C)C(=O)N[C@@H](C(=O)N[C@@H](CC(=O)O)C(=O)N[C@@H](CC(C)C)C(=O)N[C@@H](CC(C)C)C(=O)O)C(C)C` (some centres undefined) (X2-ELL[dV]DLL-OH), for which the MIC with Staphylococcus aureus [2] was found to be 16 µg/mL (≈ 15.2 µM); in the test on Bacillus subtilis [3] it was 32 µg/mL (≈ 30.3 µM); against Pseudomonas aeruginosa, 16 µg/mL (≈ 15.2 µM); with Salmonella typhi, 32 µg/mL (≈ 30.3 µM).

`C[C@@H]1CCC[C@@H](O)/C=C/[C@@H]2O[C@@H]2C[C@@H](O)C/C=C\C=C\[C@@H](O)C/C=C/C=C\C(=O)O1`: the MIC with Bacillus subtilis [3] and against Escherichia coli [4] was 16 µg/mL (≈ 38.2 µM) in each case.

On to `CO[C@@H]1/C=C/[C@H](O)C[C@@H](O)C/C=C\C=C\[C@@H](O)C/C=C/C=C\C(=O)O[C@H](C)CCC[C@@H]1O`, for which the MIC against Bacillus subtilis [3] and against Escherichia coli [4] was at least 16 µg/mL in each case.

As for `CC(C)=CCc1cc(C(=O)Nc2c(O)c3ccc(O[C@@H]4OC(C)(C)[C@H](O)[C@@H](O)[C@H]4O)c(C)c3oc2=O)cc(O)c1O`, the MIC in the test on Staphylococcus aureus [1] was over 64 µg/mL.

In the case of `C[C@@H]1CCC/C=C/C=C/[C@H](O)C[C@@H](O)[C@H](O)/C=C\C=C\[C@H](O)C/C=C/C=C\C(=O)O1`, the MIC against Staphylococcus aureus [2], against Bacillus subtilis [3] and in the test with Escherichia coli [4] was 0.1 µg/mL (≈ 0.239 µM) each time.

Regarding `COC(=O)C[C@H](O)C[C@@H](O)C[C@H](O)/C=C/C=C/CCC[C@@H](C)O`, the minimum inhibitory concentration (MIC) with Bacillus subtilis [3] and against Escherichia coli [4] was at least 16 µg/mL throughout.

In turn, `CC(=O)[C@H]1[C@@H]2C=C[C@@H]3[C@H]4C/C=C\C(=O)NCCC[C@H]5C(O)=C(C(=O)/C=C/[C@@H]4C[C@@H]3[C@H]2C[C@H]1C)C(=O)N5C` showed an MIC in the test on Staphylococcus aureus [1] of 32 to 64 µg/mL (≈ 63.2 to 126 µM).

As for `O=C1N/C(=N\O)C(c2ccccc2)=C1c1ccc(O)c([N+](=O)[O-])c1`, the MIC in the test on Bacillus subtilis [5], with Micrococcus luteus, against Escherichia coli [6] and in the test with Proteus vulgaris was 3 to 25 µg/mL (≈ 9.22 to 76.9 µM) each time.

Take `C=C1CC[C@H](Cl)C(C)(C)[C@@H]1C[C@@]12OC(C)(C)[C@H](Cl)C[C@]1(Cl)C(=O)c1c(O)cc(O)cc1C2=O`: the MIC against Staphylococcus aureus [7], in the test with Bacillus subtilis [8] and against Bacillus thuringiensis was at most 2 µg/mL throughout.

In turn, `CC[C@H]1[C@@H]2C=C[C@@H]3[C@H]4/C=C/CC(=O)NCCC[C@H]5C(O)=C(C(=O)/C=C/[C@@H]4C[C@@H]3[C@H]2C[C@H]1C)C(=O)N5C` registered an MIC in the test on Staphylococcus aureus [1] of 1 to 4 µg/mL (≈ 2.03 to 8.12 µM).

In the case of `O=C1N/C(=N\O)C(c2ccc(O)c([N+](=O)[O-])c2)=C1c1ccc(O)c([N+](=O)[O-])c1`, the MIC with Bacillus subtilis [5], in the test with Micrococcus luteus, against Escherichia coli [6] and in the test on Proteus vulgaris was 3 to 25 µg/mL (≈ 7.77 to 64.7 µM) throughout.

Turning to `CO[C@@H]1[C@@H](OC(N)=O)[C@@H](O)[C@H](Oc2ccc3c(O)c(NC(=O)c4ccc(O)c(CC=C(C)C)c4)c(=O)oc3c2C)OC1(C)C` [NOVOBIOCIN], the MIC in the test with Staphylococcus aureus [1] was found to be 0.25 µg/mL (≈ 0.408 µM).

`CC(C)=CCC/C(C)=C/C[C@@]12OC(C)(C)[C@H](Cl)C=C1C(=O)c1c(O)cc(O)cc1C2=O`: the MIC in the test on Staphylococcus aureus [7], in the test on Bacillus subtilis [8] and against Bacillus thuringiensis was 4 to 32 µg/mL (≈ 8.99 to 71.9 µM) each time.

As to `O=C1NC(=O)C(c2c[nH]c3ccccc23)=C1c1ccc(O)c([N+](=O)[O-])c1`, the MIC with Bacillus subtilis [5], in the test with Micrococcus luteus, against Escherichia coli [6] and against Proteus vulgaris was 3 to 25 µg/mL (≈ 8.59 to 71.6 µM) each time.

With `O=C1N/C(=N\O)C(c2ccc(O)c([N+](=O)[O-])c2)=C1c1ccccc1`, the minimal inhibitory concentration (MIC) against Bacillus subtilis [5], against Micrococcus luteus, against Escherichia coli [6] and with Proteus vulgaris was 3 to 25 µg/mL (≈ 9.22 to 76.9 µM) each time.

In the test with Staphylococcus aureus [7], `COC(=O)N[C@H]1[C@@H](C)O[C@@H](O[C@H]2C/C=C(\C)[C@@H]3C=C[C@@H]4[C@@H](O[C@H]5C[C@@H](O[C@H]6C[C@@H](O)[C@@H](O)[C@H](C)O6)[C@@H](O)[C@H](C)O5)[C@@H](C)C[C@H](C)[C@H]4[C@]3(C)C(=O)C3=C(O)[C@@]4(C[C@@H](C)C(C)=C[C@H]4/C=C/2C)OC3=O)C[C@]1(C)[N+](=O)[O-]` gave an MIC of 6.2 to 50 µg/mL (≈ 6.04 to 48.7 µM).

Consider `C[C@@H]1CCCCC/C=C/[C@H](O)C[C@@H](O)C/C=C\C=C\[C@@H](O[C@@H]2O[C@H](CO)[C@@H](O)[C@H](O)[C@H]2O)C/C=C/C=C\C(=O)O1`, for which the MIC was determined as 0.06 µg/mL (≈ 0.106 µM) in the test with Staphylococcus aureus [2]; 0.06 µg/mL (≈ 0.106 µM) against Bacillus subtilis [3]; 0.06 µg/mL (≈ 0.106 µM) against Escherichia coli [4]; 0.03 µg/mL (≈ 0.0529 µM) against Pseudomonas aeruginosa; 0.03 µg/mL (≈ 0.0529 µM) against Salmonella typhi.

For the compound `O=C1NC(=O)C(c2ccc(O)cc2)=C1c1ccccc1`, the MIC in the test with Bacillus subtilis [5], against Micrococcus luteus, with Escherichia coli [6] and against Proteus vulgaris was 25 to 100 µg/mL (≈ 94.2 to 377 µM) each time.
